Values of other authors in publication PMC9516332 (Frontiers in Oncology, 2022).
Like-named read-outs stand apart in the source and are kept apart here.

Assays:
[1] = target: panel of 255 wild-type kinases (Homo sapiens, UniProt Q9UQM7); settings: CaMK2α kinase assay, 1 µmol/L single concentration, cited from earlier work
[2] = target: panel of 255 wild-type kinases (Homo sapiens, UniProt P78368); settings: kinase CK1γ2, 1 µmol/L single concentration, cited from earlier work
[3] = target: panel of 255 wild-type kinases (Homo sapiens, UniProt Q9UPE1); settings: MSSK1, 1 µmol/L single concentration, cited from earlier work
[4] = target: panel of 255 wild-type kinases (Homo sapiens, UniProt Q13627); settings: kinase DYRK1A, 1 µmol/L single concentration, cited from earlier work
[5] = target: panel of 255 wild-type kinases (Homo sapiens, UniProt P07332); settings: kinase FES, 1 µmol/L single concentration, cited from earlier work
[6] = target: panel of 255 wild-type kinases (Homo sapiens, UniProt P08922); settings: cited from earlier work
[7] = target: panel of 255 wild-type kinases (Homo sapiens, UniProt O60674); settings: kinase JAK2, 1 µmol/L single concentration, cited from earlier work
[8] = target: panel of 255 wild-type kinases (Homo sapiens, UniProt Q13177); settings: PAK2, 1 µmol/L single concentration, cited from earlier work
[9] = target: panel of 255 wild-type kinases (Homo sapiens, UniProt P24941); settings: 1 µmol/L single concentration, cited from earlier work; for %-inhibition CDK2/CycA2: CDK2/CycA2 kinase assay; for %-inhibition CDK2/CycE1: CDK2/CycE1 kinase assay
[10] = target: panel of 255 wild-type kinases (Homo sapiens, UniProt Q9Y463); settings: kinase DYRK1B, 1 µmol/L single concentration, cited from earlier work
[11] = target: panel of 255 wild-type kinases (Homo sapiens, UniProt P54756); settings: kinase EPHA5, 1 µmol/L single concentration, cited from earlier work
[12] = target: T1, panel of 255 wild-type kinases (Homo sapiens, UniProt P51813); settings: BMX kinase assay, 1 µmol/L single concentration, cited from earlier work
T1 sequence (P51813 1-675): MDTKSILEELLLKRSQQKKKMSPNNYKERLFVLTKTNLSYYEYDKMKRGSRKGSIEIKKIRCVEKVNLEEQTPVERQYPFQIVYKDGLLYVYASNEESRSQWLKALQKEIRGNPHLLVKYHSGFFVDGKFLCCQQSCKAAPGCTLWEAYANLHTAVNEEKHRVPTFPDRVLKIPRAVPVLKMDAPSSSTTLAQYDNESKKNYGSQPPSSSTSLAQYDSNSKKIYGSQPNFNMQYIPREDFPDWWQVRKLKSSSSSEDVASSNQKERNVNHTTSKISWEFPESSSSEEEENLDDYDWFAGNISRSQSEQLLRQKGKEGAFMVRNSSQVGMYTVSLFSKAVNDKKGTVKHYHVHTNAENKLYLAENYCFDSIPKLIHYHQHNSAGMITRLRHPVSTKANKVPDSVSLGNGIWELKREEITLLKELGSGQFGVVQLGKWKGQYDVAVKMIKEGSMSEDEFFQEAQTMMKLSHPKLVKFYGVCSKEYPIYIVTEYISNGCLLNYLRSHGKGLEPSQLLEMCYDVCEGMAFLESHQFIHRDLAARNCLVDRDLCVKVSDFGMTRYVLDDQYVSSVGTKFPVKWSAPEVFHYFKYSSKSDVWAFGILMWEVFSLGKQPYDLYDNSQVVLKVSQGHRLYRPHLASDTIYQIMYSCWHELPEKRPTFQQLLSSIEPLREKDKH

[13] = target: panel of 255 wild-type kinases (Homo sapiens, UniProt P16591); settings: kinase FER, 1 µmol/L single concentration, cited from earlier work
[14] = target: panel of 255 wild-type kinases (Homo sapiens, UniProt P49761); settings: kinase CLK3, 1 µmol/L single concentration, cited from earlier work
[15] = target: panel of 255 wild-type kinases (Homo sapiens, UniProt P49759); settings: kinase CLK1, 1 µmol/L single concentration, cited from earlier work
[16] = ref DOI: 10.1158/1535-7163.MCT-18-0877
[17] = kinase ROS, 1 µmol/L single concentration, ref DOI: 10.1158/1535-7163.MCT-18-0877
[18] = ref DOI: 10.1371/journal.pone.0092146
[19] = kinase ROS, 1 µmol/L single concentration, ref DOI: 10.1371/journal.pone.0092146

Structure (SMILES) | %-inhibition CaMK2α [1, 16] [%] | %-inhibition at 1 µmol/L, CK1γ2 [2, 16] [%] | %-inhibition, MSSK1 [3, 16] [%] | %-inhibition at 1 µmol/L, DYRK1A [4, 16] [%] | %-inhibition at 1 µmol/L, FES [5, 16] [%] | %-inhibition at 1 µmol/L, ROS [6, 17] [%] | %-inhibition at 1 µmol/L, JAK2 [7, 16] [%] | %-inhibition, PAK2 [8, 16] [%] | %-inhibition CDK2/CycA2 [9, 16] [%] | %-inhibition CDK2/CycE1 [9, 16] [%] | %-inhibition at 1 µmol/L, DYRK1B [10, 16] [%] | %-inhibition at 1 µmol/L, EPHA5 [11, 16] [%] | %-inhibition CaMK2α [1, 18] [%] | %-inhibition, MSSK1 [3, 18] [%] | %-inhibition at 1 µmol/L, DYRK1A [4, 18] [%] | %-inhibition BMX [12, 18] [%] | %-inhibition at 1 µmol/L, FER [13, 18] [%] | %-inhibition at 1 µmol/L, CLK3 [14, 18] [%] | %-inhibition at 1 µmol/L, DYRK1B [10, 18] [%] | %-inhibition at 1 µmol/L, CLK1 [15, 18] [%] | also measured
C=CC(=O)N1CCC[C@@H](n2nc(-c3ccc(Oc4ccccc4)cc3)c3c(N)ncnc32)C1 [ibrutinib] | -1.35 | 1 | 1.54 | -3.54 | 0.681 | 5 | 0.407 | -6 | -12 | -8 | 2 | 26 |  |  |  |  |  |  |  |  | 
CC(=O)Nc1cccc(-n2c(=O)n(C3CC3)c(=O)c3c(Nc4ccc(I)cc4F)n(C)c(=O)c(C)c32)c1 [trametinib] |  |  |  |  |  |  |  |  |  |  |  |  | -1.65 | -5 | -1.23 | -3.22 | 4.28 | -0.0684 | 3.34 | -0.618 | %-inhibition at 1 µmol/L, CK1γ2 [2, 18]: -2.15%; %-inhibition at 1 µmol/L, FES [5, 18]: -1.55%; %-inhibition at 1 µmol/L, ROS [6, 19]: -0.611%; %-inhibition at 1 µmol/L, JAK2 [7, 18]: 1.75%; %-inhibition, PAK2 [8, 18]: -9%; %-inhibition CDK2/CycA2 [9, 18]: 24%; %-inhibition CDK2/CycE1 [9, 18]: 2.59%; %-inhibition at 1 µmol/L, EPHA5 [11, 18]: -2.67%
C[C@@H](Oc1cc(-c2cnn(C3CCNCC3)c2)cnc1N)c1c(Cl)ccc(F)c1Cl [crizotinib] |  |  |  |  |  |  |  |  |  |  |  |  | -2.77 |  | -13 |  | 90 | -5 | -3 | 13 | %-inhibition at 1 µmol/L, JAK2 [7, 18]: 98%; %-inhibition, PAK2 [8, 18]: 5%; %-inhibition CDK2/CycA2 [9, 18]: 3%; %-inhibition CDK2/CycE1 [9, 18]: -14%; %-inhibition at 1 µmol/L, EPHA5 [11, 18]: 71%
CC(C)(C)c1nc(-c2cccc(NS(=O)(=O)c3c(F)cccc3F)c2F)c(-c2ccnc(N)n2)s1 [dabrafenib] |  |  |  |  |  |  |  |  |  |  |  |  | -2.14 | 2.55 | 16 | 55 | 22 | 17 | 29 | 7 | %-inhibition at 1 µmol/L, FES [5, 18]: 2.29%; %-inhibition at 1 µmol/L, ROS [6, 19]: 8.55%
CO[C@@H]1[C@H](N(C)C(=O)c2ccccc2)C[C@H]2O[C@]1(C)n1c3ccccc3c3c4c(c5c6ccccc6n2c5c31)C(=O)NC4 [midostaurin] |  | -2.45 | -9 |  | 90 |  | 99 |  | 52 | 22 |  | 8 |  |  |  |  |  |  |  |  | %-inhibition BMX [12, 16]: 81%; %-inhibition at 1 µmol/L, FER [13, 16]: 101%; %-inhibition at 1 µmol/L, ROS [6]: 102%
CC#CC(=O)N1CCC[C@H]1c1nc(-c2ccc(C(=O)Nc3ccccn3)cc2)c2c(N)nccn12 [acalabrutinib] | -3.43 | -7 | -5 | -4.57 | -6.35 | 1.79 | -9 | -5 | -5 | -5 | -19 | -1.17 |  |  |  |  |  |  |  |  | %-inhibition at 1 µmol/L, FER [13, 16]: -2.54%; %-inhibition at 1 µmol/L, CLK3 [14, 16]: -15%; %-inhibition at 1 µmol/L, CLK1 [15, 16]: -8%
